In patent US20050228180A1, “Alpha, omega-dicarboximide derivatives as useful uro-selective a1a adrenoceptor blockers” (priority 2002, published 2005):
Structures can show the parent of a compound that is named as a salt.

How the values were obtained:
α1A adrenoceptor = target: T1, α1A adrenoceptor (Rattus norvegicus, UniProt P43140); test: Radioligand binding, [3H] prazosin displacement, rat submaxillary membranes; conditions: for Ki: [3H] prazosin displacement, rat submaxillary membranes, read-out: Affinity (Ki) α1A (Rat Submaxillary); for α1B/α1A: ratio of binding affinities, rat liver / rat submaxillary
T1 construct: from tissue; host or cells: rat submaxillary gland membranes
T1 sequence (P43140 1-466): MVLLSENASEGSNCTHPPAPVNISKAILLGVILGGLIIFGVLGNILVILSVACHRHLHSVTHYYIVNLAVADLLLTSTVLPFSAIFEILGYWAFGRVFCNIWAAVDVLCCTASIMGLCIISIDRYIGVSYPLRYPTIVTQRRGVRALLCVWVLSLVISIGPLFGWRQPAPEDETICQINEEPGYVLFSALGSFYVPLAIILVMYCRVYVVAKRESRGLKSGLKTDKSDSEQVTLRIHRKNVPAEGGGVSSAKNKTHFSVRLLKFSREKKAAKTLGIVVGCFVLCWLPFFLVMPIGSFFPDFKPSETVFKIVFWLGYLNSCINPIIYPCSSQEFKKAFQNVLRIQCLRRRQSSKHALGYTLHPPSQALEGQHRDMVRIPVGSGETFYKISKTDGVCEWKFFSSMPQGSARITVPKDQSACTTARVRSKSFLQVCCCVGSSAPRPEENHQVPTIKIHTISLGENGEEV
Description: (§1) Receptor binding assays were performed using native a-adrenoceptors. The affinity of different compounds for α1A and α1B adrenoceptor subtypes was evaluated by studying their ability to displace specific [^3H] prazosin binding from the membranes of rat submaxillary and liver respectively (Michel et al., Br J Pharmacol, 1989: 98:883). The binding assays were performed according to U+Prichard et al. (Eur J Pharmacol, 1978; 50:87 with minor modifications.
(§2) Submaxillary glands were isolated immediately after sacrifice. The liver was perfused with buffer (Tris HCl 50 mM, NaCl 100 mM, 10 mM EDTA pH 7.4). The tissues were homogenised in 10 volumes of buffer (Tris HCl 50 mM, NaCl 100 mM, 10 mM EDTA pH 7.4). The homogenate was filtered through two layers of wet gauge and filtrate was centrifuged at 500 g for 10 min. The supernatant was subsequently centrifuged at 40,000 g for 45 min. The pellet thus obtained was resuspended in the same volume of assay buffer (Tris HCl 50 mM, 5 mM EDTA pH 7.4) and was stored at −70° C. until the time of assay.
(§3) The membrane homogenates (150-250 μg protein) were incubated in 250 μl of assay buffer (Tris HCl 50 mM, EDTA 5 mM, pH 7.4) at 24-25° C. for 1 hour. Non specific binding was determined in the presence of 300 nM prazosin. The incubation was terminated by vacuum filtration over GF/B fibre filters. The filters were then washed with ice cold 50 mM Tris HCl buffer (pH 7.4). The filtermats were dried and bound radioactivity retained on filters was counted. The IC50 and Kd were estimated by using the non-linear curve-fitting program using G Pad Prism software. The value of inhibition constant Ki was calculated from competitive binding studies by using Cheng & Prusoff equation (Cheng & Prusoff, Biochem Pharmacol, 1973, 22: 3099-3108), Ki=IC50/(1+L/Kd) where L is the concentration of [^3H] prazosin used in the particular experiment (Table 1).

α1B adrenoceptor = target: T2, α1B adrenoceptor (Rattus norvegicus, UniProt P15823); test: Radioligand binding, [3H] prazosin displacement, rat liver membranes; conditions: read-out: Affinity (Ki) α1B (Rat Liver)
T2 construct: from tissue; host or cells: rat liver membranes
T2 sequence (P15823 1-515): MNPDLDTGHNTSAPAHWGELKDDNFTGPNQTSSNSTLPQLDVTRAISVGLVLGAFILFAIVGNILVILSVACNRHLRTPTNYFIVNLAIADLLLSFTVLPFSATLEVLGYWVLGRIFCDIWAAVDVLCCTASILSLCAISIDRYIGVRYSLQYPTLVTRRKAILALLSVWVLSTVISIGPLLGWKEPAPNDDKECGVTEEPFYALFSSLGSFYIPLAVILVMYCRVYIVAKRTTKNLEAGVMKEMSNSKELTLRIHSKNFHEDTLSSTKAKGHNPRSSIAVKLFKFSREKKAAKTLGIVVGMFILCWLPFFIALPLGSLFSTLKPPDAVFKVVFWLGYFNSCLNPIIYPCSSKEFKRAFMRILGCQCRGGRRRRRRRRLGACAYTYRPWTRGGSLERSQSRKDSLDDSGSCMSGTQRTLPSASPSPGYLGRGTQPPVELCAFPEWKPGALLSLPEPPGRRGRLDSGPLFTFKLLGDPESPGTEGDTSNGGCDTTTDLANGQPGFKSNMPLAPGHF
Description: as §1, §2, §3

| Ki (α1A adrenoceptor) [nM] | α1B/α1A (α1A adrenoceptor) | Ki (α1B adrenoceptor) [nM] | α1B/α1A (α1A adrenoceptor; hydrochloride) | SMILES |
| --- | --- | --- | --- | --- |
| 74 | >203 | > 15000 |  | CC(C)Oc1ccccc1NCCN(C=O)CCCN1C(=O)C2CC=CCC2C1=O (stereo not drawn) [Compound No. 53, 2-[N-{N′-(2-Isopropoxyphenyl)aminoethyl}formylaminopropyl]-3a,4,7,7a-tetrahydro-1H-isoindole-1,3(2H)-dione] |
| 7290 | >2 | > 15000 |  | CC(C)Oc1ccccc1N1CCN(CCCN2C(=O)C3CC=CCC3C2=O)CC1=O (stereo not drawn) [Compound No. 54] |
| 72 | 51 | 3640 |  | COc1ccccc1[N+]1([O-])CCN(CCCN2C(=O)CCCC2=O)CC1 [Compound No. 55, 1-[4-(2-Methoxyphenyl)piperazin-1-yl-4-N-oxide]-3-(2,6-dioxopiperidin-1-yl]propane] |
| > 100 | >10 | 992 |  | COc1ccccc1NCCNCCCN1C(=O)CCCC1=O [Compound No. 56, 1-[N-{N′-(2-Methoxyphenyl)aminoethyl}]-3-(2,6-dioxopiperidin-1-yl)aminopropane hydrochloride] |
| > 1000 | 1 | > 1000 |  | COc1ccccc1NCCNCCCN1C(=O)CCCC1=O.Cl [Compound No. 57, 1-[N—N-{N′-(2-Methoxyphenyl)aminoethyl}]-3-(2,6-dioxopiperidin-1-yl)aminopropane hydrochloride] |
| 160 | 10 | > 1000 |  | CC(=O)Nc1ccc(N2CCN(CCCN3C(=O)C4CC=CCC4C3=O)CC2)c(OC(C)C)c1.Cl (stereo not drawn) [Compound No. 58, 2-[3-{4-(2-Isopropoxy-4-acetylaminophenyl)piperazin-1-yl}propyl]-3a,4,7,7a-tetrahydro-1H-isoindole-1,3(2H)-dione hydrochloride] |
| 2.3 | 21 | 48 |  | CC(C)Oc1ccccc1N1CCN(CCCN2C(=O)C3=CC=CCC3C2=O)CC1.Cl (stereo not drawn) [Compound No. 59, 2-[3-{4-(2-Isopropoxyphenyl)piperazin-1-yl}propyl]-7,7a-dihydro-1H-isoindole-1,3(2H)-dione hydrochloride] |
| 0.93 | 31 | 29 |  | CC(C)Oc1ccccc1N1CCN(CCCN2C(=O)[C@@H]3[C@H](C2=O)[C@H]2C=C[C@@H]3O2)CC1 [Compound No. 61, 2-[3-{4-(2-Isopropoxyphenyl)piperazin-1-yl}-propyl]-exo-4,7-epoxy-3a,4,7,7a-tetrahydro-1H-isoindole-1,3(2H)-dione hydrochloride] |
| > 1000 | 1 | > 1000 |  | CC(C)Oc1ccccc1N1CCN(CCC(=O)N2C(=O)C3CC=CCC3C2=O)CC1.Cl (stereo not drawn) [Compound No. 62, 2-[3-{4-(2-Isopropoxyphenyl)piperazin-1-yl}-1-oxo-propyl]-3a,4,7,7a-tetrahydro-1H-isoindole-1,3(2H)-dione hydrochloride] |
| > 100 | >10 | > 1000 |  | CC(C)Oc1ccccc1N1CCN(CCC(=O)N2C(=O)C3CCCCC3C2=O)CC1.Cl (stereo not drawn) [Compound No. 63, 2-[3-{4-(2-Isopropoxyphenyl)piperazin-1-yl}-1-oxo-propyl]-3a,4,5,6,7,7a-hexahydro-1H-isoindole-1,3(2H)-dione hydrochloride] |
| 28.5 | 31 | 870 |  | CC(C)Oc1ccccc1[N+]1([O-])CCN(CCCN2C(=O)C3CC=CCC3C2=O)CC1 (stereo not drawn) [Compound No. 64, 2-[3-{4-(2-Isopropoxyphenyl)piperazin-1-yl,4-N-oxide}propyl]-3a,4,7,7a-tetrahydro-1H-isoindole-1,3(2H)-dione] |
| > 1000 | 1 | > 1000 |  | CC(C)Oc1ccccc1N1CC[N+]([O-])(CC(O)CN2C(=O)C3CC=CCC3C2=O)CC1 (stereo not drawn) [Compound No. 65, 2-[3-{4-(2-Isopropoxyphenyl)piperazin-1-yl,1-N-oxide}2-hydroxypropyl]-3a,4,7,7a-tetrahydro-1H-isoindole-1,3(2H)-dione] |
| 5.2 |  | 167 | 32 | CCOc1ccccc1N1CCN(CCCN2C(=O)C3CC(O)C(O)CC3C2=O)CC1 (stereo not drawn) [Compound No. 66, hydrochloride] |
| 189 | >53 | > 10000 |  | CC(C)Oc1ccccc1N1CCN(CCCN2C(=O)C3CC=CCC3C2=O)C1=O (stereo not drawn) [Compound No. 67, 2-[3-{3-(2-Isopropoxyphenyl)imidazolidon-1-yl}propyl]-3a,4,7,7a-tetrahydro-1H-isoindole-1,3(2H)-dione] |
| 229 | >44 | > 10000 |  | CC(C)Oc1ccccc1N(CCO)CCNCCCN1C(=O)C2CC=CCC2C1=O (stereo not drawn) [Compound No. 68, 2-[N-{N′-(2-Isopropoxyphenyl)aminoethyl}aminopropyl-N′-(β-hydroxyethyl]-3a,4,7,7a-tetrahydro-1H-isoindole-1,3(2H)-dione hydrochloride] |
| 7160 | >10 | > 10000 |  | COc1ccccc1N1CC[N+]([O-])(CC(O)CN2C(=O)CCCC2=O)CC1 (stereo not drawn) [Compound No. 69, 1-[4-(2-Methoxyphenyl)piperazin-1-yl-1-N-oxide]-3-(2,6-dioxopiperidin-1-yl]-2-hydroxypropane] |
| 6750 | 0.7 | 4920 |  | O=C1CCCC(=O)N1CCC[N+]1([O-])CCN(c2ccccc2O)CC1 [Compound No. 70, 1-[4-(2-Hydroxyphenyl)piperazin-1-yl-1-N-oxide]-3-(2,6-dioxopiperidin-1-yl]propane] |
| > 1000 | 1 | > 10000 |  | CC(C)Oc1ccccc1N1CCN(CCCN2C(=O)C3CC=CCC3C2=O)C(=O)C1=O (stereo not drawn) [Compound No. 71, 2-[3-{4-(2-Isopropoxyphenyl)-2,3-dioxopiperazin-1-yl}-propyl]-3a,4,7,7a-tetrahydro-1H-isoindole-1,3(2H)-dione] |
| 0.54 | 263 | 142 |  | CC(C)Oc1ccccc1N1CCN(CCCN2C(=O)C3C(O)C=CC(O)C3C2=O)CC1 (stereo not drawn) [Compound No. 72, 2-[3-{4-(2-Isopropoxyphenyl)piperazin-1-yl}propyl]-4,7-dihydroxy-3a,4,7,7a-tetrahydro-1H-isoindole-1,3(2H)-dione] |
| 202 | >74 | > 15000 |  | CCN(CCCN1C(=O)C2CC=CCC2C1=O)CCNc1ccccc1OC(C)C (stereo not drawn) [Compound No. 74, 2-[N-{N′-(2-Isopropoxyphenyl)aminoethyl}ethylaminopropyl]-3a,4,7,7a-tetrahydro-1H-isoindole-1,3(2H)-dione] |

| SMILES | Ki (α1A adrenoceptor) [nM] | α1B/α1A (α1A adrenoceptor) | Ki (α1B adrenoceptor) [nM] | α1B/α1A (α1A adrenoceptor; hydrochloride) |
| --- | --- | --- | --- | --- |
| CCOC(=O)CN(CCCN1C(=O)C2CC=CCC2C1=O)CCNc1ccccc1OC(C)C (stereo not drawn) [Compound No. 52, 2-[N-{N′-(2-Isopropoxyphenyl)aminoethyl}ethylacetate-aminopropyl]-3a,4,7,7a-tetrahydro-1H-isoindole-1,3(2H)-dione] | 351 | >43 | > 15000 |  |
